Literature values in patent US20090306452A1, “APPARATUS FOR TREATING A CONTAMINATED MEDIA WITH A SORBENT” (priority 2008, published 2009).

conditions: log10 of concentration in octanol / concentration in water; examples of hydrophobic hazardous materials

Compound	Log P
Clc1cc2oc3c(Cl)cc(Cl)c(Cl)c3c2c(Cl)c1Cl [1,2,3,6,8,9-hexachloro-dibenzofuran]	about 7
Clc1cc(Cl)cc(C2(CC(Cl)(Cl)Cl)CO2)c1 (stereo not shown) [2-(3,5-dichlorophenyl)-2-(2,2,2-trichloroethyl) oxirane]	about 4
c1ccc2c(c1)Oc1ccccc1O2 [dibenzo (1,4) dioxin]	about 4
hexafluoromethane	about 2
